The NIST ThermoML archive (doi:10.1021/je2003012)

Assay: relative permittivity at various frequencies (dimensionless); wn = mass fraction of the nth substance listed
Settings: Liquid, direct capacitance:P =

O=C=O [carbon dioxide] + CCO
Settings | relative permittivity
304.9 K, 29800 kPa, w2 = 0.152 | 2.85
312.8 K, 8000 kPa, w2 = 0.212 | 2.8
312.8 K, 9300 kPa, w2 = 0.212 | 2.86
312.8 K, 11200 kPa, w2 = 0.212 | 2.94
312.8 K, 11500 kPa, w2 = 0.212 | 2.94
312.8 K, 14200 kPa, w2 = 0.212 | 3
312.8 K, 14300 kPa, w2 = 0.212 | 3.01
312.8 K, 14900 kPa, w2 = 0.212 | 3.03
312.8 K, 15800 kPa, w2 = 0.212 | 3.05
312.8 K, 17400 kPa, w2 = 0.212 | 3.11
312.8 K, 18000 kPa, w2 = 0.212 | 3.14
312.8 K, 20000 kPa, w2 = 0.212 | 3.17
312.8 K, 20600 kPa, w2 = 0.212 | 3.18
312.8 K, 22200 kPa, w2 = 0.212 | 3.22
312.8 K, 22800 kPa, w2 = 0.212 | 3.23
312.8 K, 23700 kPa, w2 = 0.212 | 3.25
312.8 K, 26300 kPa, w2 = 0.212 | 3.3
312.8 K, 28100 kPa, w2 = 0.212 | 3.32
312.8 K, 28400 kPa, w2 = 0.212 | 3.34
312.8 K, 30800 kPa, w2 = 0.212 | 3.37
313 K, 9700 kPa, w2 = 0.05 | 1.63
313 K, 9800 kPa, w2 = 0.05 | 1.64
313 K, 9900 kPa, w2 = 0.05 | 1.65
313 K, 11300 kPa, w2 = 0.05 | 1.7
313 K, 11700 kPa, w2 = 0.05 | 1.7
313 K, 11800 kPa, w2 = 0.05 | 1.7
313 K, 13200 kPa, w2 = 0.05 | 1.74
313 K, 13700 kPa, w2 = 0.05 | 1.74
313 K, 15100 kPa, w2 = 0.05 | 1.77
313 K, 15700 kPa, w2 = 0.05 | 1.78
313 K, 17400 kPa, w2 = 0.05 | 1.8
313 K, 17500 kPa, w2 = 0.05 | 1.8
313 K, 19200 kPa, w2 = 0.05 | 1.82
313 K, 20700 kPa, w2 = 0.05 | 1.83
313 K, 21600 kPa, w2 = 0.05 | 1.84
313 K, 23500 kPa, w2 = 0.05 | 1.86
313 K, 25300 kPa, w2 = 0.05 | 1.87
313 K, 25400 kPa, w2 = 0.05 | 1.87
313 K, 27400 kPa, w2 = 0.05 | 1.89
313 K, 30400 kPa, w2 = 0.05 | 1.91
313.1 K, 9700 kPa, w2 = 0.1 | 1.98
313.1 K, 10100 kPa, w2 = 0.152 | 2.37
313.1 K, 10200 kPa, w2 = 0.1 | 2
313.1 K, 10900 kPa, w2 = 0.152 | 2.39
313.1 K, 11000 kPa, w2 = 0.1 | 2.03
313.1 K, 11800 kPa, w2 = 0.152 | 2.42
313.1 K, 12000 kPa, w2 = 0.1 | 2.05
313.1 K, 12700 kPa, w2 = 0.1 | 2.08
313.1 K, 12700 kPa, w2 = 0.152 | 2.45
313.1 K, 13100 kPa, w2 = 0.1 | 2.09
313.1 K, 13700 kPa, w2 = 0.1 | 2.11
313.1 K, 13800 kPa, w2 = 0.152 | 2.47
313.1 K, 14600 kPa, w2 = 0.152 | 2.49
313.1 K, 14800 kPa, w2 = 0.1 | 2.13
313.1 K, 15700 kPa, w2 = 0.152 | 2.52
313.1 K, 15800 kPa, w2 = 0.1 | 2.15
313.1 K, 16800 kPa, w2 = 0.152 | 2.54
313.1 K, 17000 kPa, w2 = 0.1 | 2.17
313.1 K, 17700 kPa, w2 = 0.1 | 2.18
313.1 K, 17800 kPa, w2 = 0.152 | 2.56
313.1 K, 18800 kPa, w2 = 0.1 | 2.19
313.1 K, 18800 kPa, w2 = 0.152 | 2.58
313.1 K, 19500 kPa, w2 = 0.152 | 2.59
313.1 K, 19800 kPa, w2 = 0.1 | 2.2
313.1 K, 20800 kPa, w2 = 0.152 | 2.61
313.1 K, 21600 kPa, w2 = 0.152 | 2.62
313.1 K, 21900 kPa, w2 = 0.1 | 2.23
313.1 K, 22100 kPa, w2 = 0.1 | 2.23
313.1 K, 22400 kPa, w2 = 0.1 | 2.24
313.1 K, 22600 kPa, w2 = 0.152 | 2.63
313.1 K, 23500 kPa, w2 = 0.152 | 2.64
313.1 K, 24100 kPa, w2 = 0.1 | 2.26
313.1 K, 24400 kPa, w2 = 0.1 | 2.26
313.1 K, 24500 kPa, w2 = 0.152 | 2.66
313.1 K, 25500 kPa, w2 = 0.152 | 2.67
313.1 K, 25800 kPa, w2 = 0.1 | 2.28
313.1 K, 26400 kPa, w2 = 0.1 | 2.28
313.1 K, 26500 kPa, w2 = 0.152 | 2.68
313.1 K, 27500 kPa, w2 = 0.152 | 2.69
313.1 K, 27700 kPa, w2 = 0.1 | 2.3
313.1 K, 27800 kPa, w2 = 0.1 | 2.3
313.1 K, 27900 kPa, w2 = 0.152 | 2.7
313.1 K, 28300 kPa, w2 = 0.1 | 2.3
313.1 K, 28400 kPa, w2 = 0.152 | 2.71
313.1 K, 29300 kPa, w2 = 0.1 | 2.31
313.1 K, 29300 kPa, w2 = 0.152 | 2.72
313.1 K, 29500 kPa, w2 = 0.1 | 2.32
322.4 K, 10500 kPa, w2 = 0.1 | 1.86
